Experimental data from article PMC7371863, “Intracellular interplay between cholecystokinin and leptin signalling for satiety control in rats” (Scientific Reports, 2020).
Where two headings read alike, the source gives them in different places.

How the values were obtained:
[1] = test system: pSTAT3 in C6-ObRb cells; assay: Immunofluorescent staining of pSTAT3 in C6-ObRb cells; type: cell-based, rat C6 cells, mouse ObRb
Description: Rat C6 glioma cells were cultured in Dulbecco’s Modified Eagle Medium/F12 (DMEM/F12) supplemented with 10% FBS, sodium bicarbonate (1.2 g/L), and 1% penicillin/streptomycin antibiotics at 37 °C in 5% CO2. The full-length mouse leptin receptor (ObRb) in pcDNA3.1 vector was kindly provided by Dr. Christian Bjørbaek (BIDMC, Harvard Medical School, Boston, MA, USA) and transfected using Lipofectamine 2000. Subsequently, the cells were cultured in medium containing 500 μg/mL G418 for cell selection.
[…] Cells were treatment with AG490 (1 μM) or LY294002 (50 μM) 15 min prior to the leptin stimulation until the time of fixation. These cells were fixed in 4% phosphate-buffered paraformaldehyde for 15 min and washed three times with PBS(−). The fixed samples were then incubated for 2 h at room temperature in 10% donkey serum dissolved in 0.1% Triton-X PBS(−). Next, samples were incubated with 1:100 affinity-purified rabbit phospho-STAT3 (pTyr^705) dissolved in 5% donkey serum PBS(−) for 24 h at 4 °C. After three 20-min PBS(−) rinses, samples were incubated in 1:400 Cy3-conjugated donkey anti-rabbit IgG for 2 h at room temperature. Finally, samples were rinsed with PBS(−) (four 15-min rinses on an orbital shaker) and mounted using Vectashield containing 4′,6-diamidino-2-phenylindole (DAPI).
(§1) Images were acquired using a confocal laser-scanning microscope (Olympus FV1000 or Nikon A1R MP plus) with a laser diode (405 nm), argon laser (488 nm), and helium neon laser ([…]). The nuclear immunofluorescent intensity (8-bit depth) was analyzed using Photoshop CS 6 software.

[2] = test system: VMN cells; assay: Ca2+ imaging in rat VMN slices; type: cell-based; details: for cells responding exclusively to leptin or CCK-8s, VMN (discussion): approximately, population analysis; for Rmax, Ca2+ concentration response / EC50: four-parameter Hill function; for EC50: read-out: EC50, Ca2+ concentration response
[3] = test system: nuclear pSTAT3 in the rat VMN; assay: Nuclear pSTAT3-ir in VMN after i.c.v. injection; type: in vivo
Description: A guide cannula (cut length 5 mm, no. C315G; Plastics One Inc.) was stereotaxically implanted to the right lateral ventricle of each rat, with the coordinates of 0.8 mm posterior to the bregma, 1.4 mm lateral to the midline, and 3.3 mm ventral from the skull surface. The canula was secured on the skull surface with two stainless steel screws and dental acrylic resin. The rats were then allowed to recover in their home cage for at least 1 week. Leptin (4 µg) and CCK (2 µg) were dissolved in 4 µl ACSF and administered through an internal cannula (cut length 5.5 mm, no. C315I; Plastics One Inc. C315I). To minimize the effect of endogenous signals, the rats were deprived of food for 10 h (08:00–18:00) before i.c.v. administration. Drugs were infused at a flow rate of 1 µl/min over 4 min using a motorized syringe pump (Carnegie Medicine model CMA/102), followed by another 4 min of rest for diffusion. One hour after i.c.v. administration, the rat brain was removed for immunohistochemical analysis.
For immunohistochemical analysis of rat hypothalamic slices, animals were deeply anesthetized with an i.p. injection of sodium pentobarbital (50 mg/kg) and transcardially perfused with PBS(−) for 5 min followed by ice-cold 4% (w/v) paraformaldehyde in PBS(−) for 15 min. The brain was removed and further fixed in the same fixative (4 °C, overnight). Then, the olfactory bulbs and/or cerebellum were removed from the brain in ice-cold PBS(−). Pre-trimmed brain tissues were immersed in 30% (w/v) sucrose and stored overnight at 4 °C. The fixed and cryoprotected brain tissues were embedded with OCT compound. Frozen sections of 30 µm thickness were cut using a cryostat microtome and washed three times with PBS(−) in 24-well plates, after which they were mounted on glass slides. […]
as §1

[4] = test system: VMN neurons; assay: Whole cell patch clamp, action potential firing in VMN neurons; type: cell-based, rat; details: for action potential firing frequency: n.s.
Description: The VMH slices (300-μm thickness) were prepared following deep pentobarbital anaesthesia administration to postnatal day (PD) 12–16 rats using a vibrating blade microtome in ice-cold high-Mg^2+ artificial cerebrospinal fluid (ACSF) containing 138.6 mM NaCl, 3.35 mM KCl, 21 mM NaHCO3, 0.6 mM NaH2PO4, 9.9 mM D-glucose, 0.5 mM CaCl2, and 4 mM MgCl2 bubbled with 95% O2/5% CO2. The slices were incubated at room temperature for 1 h in regular ACSF containing 2.5 mM CaCl2, and 1.0 mM MgCl2 bubbled with 95% O2/5% CO2. Subsequently, the slices were transferred to an upright microscope stage (Olympus BX50WI). The recording chamber was perfused with oxygenated normal ACSF at 3 ml/min at 34 °C. VMN neurons were visualized through an infrared CCD camera (Hamamatsu Photonics C2741-79). Neurons were recorded in the whole-cell current-clamp mode using a patch-clamp amplifier (Axon Instruments Axopatch 200B). The recordings were performed using patch pipettes with an access resistance of 4–6 MΩ and internal solution containing 135 mM potassium gluconate, 5 mM KCl, 10 mM HEPES, 0.1 mM CaCl2, 1.0 mM EGTA, 10 mM phosphocreatine, 2 mM Mg-ATP, and 0.2 mM Na-GTP (pH adjusted to 7.3 with KOH). The output of the amplifier was digitised using an A/D converter board (Axon Instruments Digidata 1200) with a sampling rate of 10 kHz and recorded on a hard disk by data acquisition software (Axon Instruments pCLAMP 8). Membrane potentials were low-pass-filtered at 2 kHz. Resting membrane potentials less than − 60 mV were set to approximately − 60 mV by current injections. Stimulants were applied by the gravity drop perfusion system. Further details of electrophysiological recordings were described previously.

[5] = test system: cultured vagal afferent neurons; details: cited from earlier work
[6] = leptin with co-stimulation of 1 nM CCK-8s

In the case of CCK-8s [reference compound], the “cytosolic pSTAT3-ir” value ([1]; CCK-8s 50 nM) is reported as “induced cytosolic pSTAT3-ir”, the “nuclear pSTAT3-ir on co-stimulation versus leptin alone” value ([1]; CCK-8s 50 nM with leptin 100 nM, 30 images/three dishes, p < 0.01) is reported as “significantly smaller than that by leptin stimulation alone” and the “nuclear intensity of pSTAT3-ir versus unstimulated controls” value ([1]; CCK-8s 50 nM, 30 images/three dishes, p < 0.01) is reported as “significantly smaller in the CCK-8s-treated group than in unstimulated controls”. The “Ca2+ transients in slice preparation” value ([2]; CCK-8s 1 nM alone, n = 216 in 18 slices) was “failed to evoke Ca^2+ transients”, the “effect of co-stimulation on leptin-induced Ca2+ responses” value ([2]; CCK-8s 1 nM with leptin 1–1,000 nM, p < 0.01 two-way ANOVA) was “amplified leptin-induced Ca^2+ responses” and the “cells that exclusively responded to CCK-8s, VMN” value ([2]; CCK-8s 10 nM versus leptin 500 nM, 11 slices, mean with standard error) was 5.2 ± 1.1%. The “leptin responders also responding to CCK-8s, VMN” value ([2]; CCK-8s 10 nM, leptin 500 nM, 11 slices, mean with standard error) was 81.3 ± 9.1%, the “cells responding exclusively to leptin or CCK-8s, VMN (discussion)” value ([2]; leptin 500 nM and CCK-8s 10 nM) was 5–12% and the “cells showing leptin-induced Ca2+ increase that also responded to CCK-8s (discussion)” value ([2]; leptin 500 nM and CCK-8s 10 nM) was “more than 80%”. The “nuclear pSTAT3 levels in VMN versus single leptin injection” value ([3]; CCK-8s 2 µg co-injected with leptin 4 µg i.c.v.) was “reduced nuclear pSTAT3 levels in the rat VMN compared with single leptin injections” and the “action potential firing frequency” value ([4]; CCK-8s 1 nM, n = 9, spontaneous 1.45 ± 0.07 Hz, − 60 mV, 34 °C) was 1.28 ± 0.15 Hz.
With “leptin: peptide hormone secreted from white adipocyte tissue, product of the obese gene; PeproTech Cat#450-31” the “nuclear pSTAT3-ir” value ([1]; leptin 100 nM, 30 images/three dishes, p < 0.01 one-way ANOVA) was “significantly increased pSTAT3-ir in the nuclei”, the “cells responding exclusively to leptin or CCK-8s, VMN (discussion)” value ([2]; leptin 500 nM and CCK-8s 10 nM) was 5–12% and the “cells that exclusively responded to leptin, VMN” value ([2]; leptin 500 nM versus CCK-8s 10 nM, 11 slices, mean with standard error) was 12.2 ± 1.5%. For the same substance, the “cells with monophasic Ca2+ increase, VMN” value ([2]; leptin 500 nM, 11 slices, 0.5 µM tetrodotoxin, 34 °C, mean with standard error) was 65.4 ± 7.5%, the “Rmax, Ca2+ concentration response” value ([2]; leptin alone) was 0.2 and the EC50 ([2]; leptin alone) was 153 nM. For the same substance, the “Rmax, Ca2+ concentration response” value ([2]; leptin with 1 µM LGM) was 0.14, the EC50 ([2]; leptin with 1 µM LGM) was 163 nM and the “Rmax, Ca2+ concentration response” value [2, 6] was 0.26. The EC50 [2, 6] was 42.8 nM, the “number of nuclear pSTAT3-ir in VMN relative to vehicle-injected control” value ([3]; leptin 4 µg i.c.v., 1 h, 10 h food-deprived, p < 0.01) was “three times” and the “number of nuclear pSTAT3-ir in VMN, co-administration, versus vehicle” value ([3]; leptin 4 µg with CCK-8s 2 µg i.c.v., 1 h, n.s.) was “failed to increase the number of nuclear pSTAT3-ir”. The “neurons with apparent (> twofold) increase in firing frequency, co-stimulation” value ([4]; leptin 30 nM with CCK-8s 1 nM) was “Five neurons in nine recordings”, the “action potential firing frequency, co-stimulation” value ([4]; leptin 30 nM with CCK-8s 1 nM, n = 9, p < 0.01, spontaneous 1.45 ± 0.07 Hz, − 60 mV, 34 °C) was 3.49 ± 0.68 Hz and the “highest action potential firing frequency, co-stimulation” value ([4]; leptin 30 nM with CCK-8s 1 nM, single neuron maximum) was 5.5 Hz. The “action potential firing frequency” value ([4]; leptin 30 nM, n = 9, spontaneous 1.45 ± 0.07 Hz, − 60 mV, 34 °C) was 1.55 ± 0.13 Hz and the “cytosolic Ca2+ after leptin stimulation” value [5] was “cytosolic Ca^2+ increase”.
